According to patent US11091876B2, “Moisture resistant biodegradable composition” (AUTOM RIVER INC., priority 2015, dated 2021):

How the values were obtained:
mosquitoes = experiment: Mosquito mortality with insecticide-sprayed water-filled containers in a closed area; type: in vivo; conditions: containers double sprayed, after about 4 weeks
Method: The biodegradable containers also successfully functioned as a mosquito trap. For example, containers were double sprayed with lambda-cyalothrin, filled with water and placed in a closed area with a known number of mosquitoes. After about 4 weeks, mosquito mortality was measured by counting the number of live mosquitoes compared to the dead mosquitoes. 100% mosquito mortality was achieved.

plants = conditions: cited from earlier work

Compound | mosquito mortality (mosquitoes) [%] | incompatibility on cultivated plants (plants) | phytotoxicity to most plants (plants; when used as directed)
CC1(C)[C@H](C(=O)O[C@H](C#N)c2cccc(Oc3ccccc3)c2)[C@@H]1/C=C(\Cl)C(F)(F)F [lambda-cyalothrin] | 100 |  | 
CC1(C)C(C=C(Cl)Cl)C1C(=O)OCc1cccc(Oc2ccccc2)c1 (stereo not drawn) [permethrin] |  | No incompatibility has been observed | not phytotoxic
